Laboratory results: patent publication US20040053996A1, “Use of oxabicyclo[2.2.1]heptane derivatives as pesticidal agents” (priority 2000, published 2004)

Assays:
[1] = test system: greenhouse red spider mite (Tetranychus urticae); experiment: Tetranychus test (OP-resistant/dip treatment); assay type: in vivo; details: 1000 ppm, infested bean plants (Phaseolus vulgaris) dipped, OP-resistant mites
Protocol: Tetranychus Test (OP Resistant/Dip Treatment)
To produce a suitable preparation of active compound, 1 part by weight of active compound is mixed with the stated amount of solvent and the stated amount of emulsifier, and the concentrate is diluted with emulsifier-containing water to the desired concentration.
Bean plants (Phaseolus vulgaris) which are heavily infested by all stages of the greenhouse red spider mite (Tetranychus urticae) are dipped into a solution of the active compound at the desired concentration.
After the desired period of time, the effect in % in determined. 100% means that all spider mites have been killed; 0% means that none of the spider mites have been killed.

Myzus persicae = experiment: Myzus test; assay type: in vivo; details: 100 ppm, infested cabbage leaves (Brassica oleracea) dipped
Protocol: (§1) To produce a suitable preparation of active compound, 1 part by weight of active compound is mixed with the stated amounts of solvent and of emulsifier, and the concentrate is diluted with emulsifier—containing water to the desired concentration.
Cabbage leaves (Brassica oleracea) which are heavily infested by Myzus persicae are dipped into a preparation of active compound of the desired concentration.
After the desired period of time, the kill in % is determined. 100% means that all aphids have been killed; (0)% means that none of the aphids nave been killed.

[2] = test system: larvae of Phaedon cochleariae; experiment: Phaedon larvae test; assay type: in vivo; details: 1000 ppm, cabbage leaves (Brassica oleracea) dipped, infested with larvae
Protocol: as §1
Cabbage leaves (Brassica oleracea) are treated by being dipped into the preparation of active compound of the desired concentration and are infested with larvae of Phaedon cochleariae while the leaves are still moist.
After the desired period of time, the kill in % is determined. 100% means that all beetle larvae have been killed; 0% means that no beetle larvae have been killed.

Meloidogyne incognita = Meloidogyne incognita test; assay type: in vivo; details: 20 ppm; sand with egg-larvae suspension and lettuce seeds; nematocidal activity from gall formation, 100% = no galls
Protocol: To produce a suitable preparation of active compound, 1 part by weight of active compound is mixed with the stated amounts of solvent and of emulsifier, and the concentrate is diluted with water to the desired concentration.
Containers are filled with sand, preparation of active compound, a suspension of egg-larvae of Meloidogyne incognita and with lettuce seeds. The lettuce seeds germinate and the plants are allowed to grow. Galls are formed on the roots.
After the desird period of time, the nematocidal activity is determined on basis of the formation of galls and is calculated in %.
An activity of 100% means that no galls have been found, an activity of 0% means that the number of the galls at the treated plants corresponds to the number of galls in the untreated control plants.

[3] = test system: Erysiphe graminis f. sp.hordei; experiment: Erysiphe test (barley)/induction of resistance; assay type: in vivo; details: young barley plants sprayed at 750 g/ha; inoculated 4 days after treatment; evaluated 7 days after inoculation; 100% = no disease
Protocol: Erysiphe Test (Barley)/Induction of Resistance
To produce a suitable preparation of active compound, 1 part by weight of active compound is mixed with the stated amount of solvent, and the concentrate is diluted with water and the stated amount of emulsifier to the desired concentration.
To test for resistance-inducing activity, young barley plants are sprayed with the preparation of active compound at the stated rate of application. 4 days after the treatment, the plants are inoculated with an aqueous spore suspension of Erysiphe graminis f. sp.hordei. The plants are subsequently placed in a greenhouse at 70% relative atmospheric humidity and 18° C.
The test is evaluated 7 days after the inoculation. 0% means an efficacy which corresponds to that of the control while an efficacy of 100% means that no disease is observed.

[4] = test system: green rice leaf hopper (Nephotettix cincticeps); experiment: Nephotettix test; assay type: in vivo; details: 1000 ppm, rice seedlings (Oryza sativa) dipped, infested with larvae
Protocol: To produce a suitable preparation of active compound, 1 part by weight of active compound is mixed with the stated amount of solvent and the stated amount of emulsifier, and the concentrate is diluted with water to the desired concentration.
Rice seedlings (Oryza sativa) are treated by being dipped into the preparation of active compound of the desired concentration and are infested with larvae of the green rice leaf hopper (Nephotettix cincticeps) while the seedlings are still moist.
After the desired period of time, the kill in % is detemruned. 100% means that all leaf hoppers have been killed; 0% means that none of the leaf hoppers have been killed.

| Structure (SMILES) | Efficacy in % [3] [%] | other results |
| --- | --- | --- |
| COC(=O)C1C2C=CC(O2)C1C(=O)OC (centres unmarked) |  | kill in % after 7 days [1]: 90% |
| O=C(O)C1C2C=CC(O2)C1C(=O)O (centres unmarked) |  | Kill in % after 6 days (Myzus persicae): 80% |
| O=C(O)C1C2CCC(O2)C1C(=O)O (centres unmarked) |  | kill in % after 7 days [2]: 100% |
| CC(CNC(=O)C1C2CCC(O2)C1C(=O)O)c1ccccc1 (centres unmarked) |  | kill in % (Meloidogyne incognita): 100% |
| Cc1cc(C)c(NC(=O)C2C3CCC(C)(O3)C2C(=O)O)c(C)c1 (centres unmarked) |  | melting point: 168 °C |
| O=C(O)C1C2C=CC(O2)C1C(=O)NCCCc1ccccc1 (centres unmarked) | 70 |  |
| O=C(O)C1C2C=CC(O2)C1C(=O)Nc1cccc(Cl)c1 (centres unmarked) | 70 |  |
| O=C(O)C1C2C=CC(O2)C1C(=O)NCc1cc(Cl)nc(Cl)c1 (centres unmarked) | 70 |  |
| CC(C)(CNC(=O)C1C2C=CC(O2)C1C(=O)O)n1cncn1 (centres unmarked) | 70 |  |
| COc1ccccc1NC(=O)C1C2CCC(O2)C1C(=O)O (centres unmarked) | 70 |  |
| O=C(O)C1C2CCC(O2)C1C(=O)NCCc1ccccc1 (centres unmarked) | 90 |  |
| CC(Cc1ccccc1)NC(=O)C1C2CCC(O2)C1C(=O)O (centres unmarked) | 80 |  |
| CCOC(=O)C1C2C=CC(O2)C1C(=O)Sc1ccccc1NC(N)=O (centres unmarked) |  | Kill in % after 6 days [4]: 100% |
| O=C(O)[C@@H]1C2CCC(O2)[C@@H]1C(=O)O |  | Kill in % after 6 days [4]: 100% |
